How the values were obtained:
SRC = target: T1, SRC (Homo sapiens, UniProt P12931); test: Biochemical kinase assay (Reaction Biology), SRC; conditions: 10 μM ATP; read-out: Enzymatic Kinase SRC IC50
T1 construct: purchased Reaction Biology Corporation (assay service; enzyme from the CRO's panel)
Method: The biochemical kinase assay was performed at Reaction Biology Corporation (www.reactionbiology.com, Malvern, PA) following the procedures described in the reference (Anastassiadis T, et al Nat Biotechnol. 2011, 29, 1039). Specific kinase/substrate pairs along with required cofactors were prepared in reaction buffer; 20 mM Hepes pH 7.5, 10 mM MgCl2,1 mM EGTA, 0.02% Brij35, 0.02 mg/ml BSA, 0.1 mM Na3VO4, 2 mM DTT, 1% DMSO (for specific details of individual kinase reaction components see Supplementary Table 2). Compounds were delivered into the reaction, followed ˜20 minutes later by addition of a mixture of ATP (Sigma, St. Louis MO) and ^33P ATP (Perkin Elmer, Waltham MA) to a final concentration of 10 μM. Reactions were carried out at room temperature for 120 min, followed by spotting of the reactions onto P81 ion exchange filter paper (Whatman Inc., Piscataway, NJ). Unbound phosphate was removed by extensive washing of filters in 0.75% phosphoric acid. […] IC50 values and curve fits were obtained using Prism (GraphPad Software).
The enzymatic kinase inhibition activities at 10 μM ATP concentration were determined at Reaction Biology.

[1] = tested on: MET phosphorylation and downstream signaling in SNU-5 cells; test: Immunoblotting for cellular kinase phosphorylation, SNU-5; type: cell-based, human; conditions: 4 hour incubation
Method: (§1) Half a million cells per well were seeded in 24 well plate for 24 hrs, and then treated with compounds for 4 hours. Cells were collected after treatment and lysed in RIPA buffer (50 mM Tris, pH 7.4, 150 mM NaCl, 1% NP-40, 0.5% Deoxycholate, 0.1% SDS) supplemented with 10 mM EDTA, 1× Halt protease and phosphatase inhibitors (Thermo Scientific). […] Membranes were incubated with chemiluminescent substrate for 5 min at room temperature (SuperSignal West Femto, Thermo Scientific). The chemiluminescent images were acquired with a C-DiGit Imaging System (LI-COR Biosciences). The relative density of the chemiluminescent bands were quantified via Image Studio Digits from LICOR. The half inhibitory concentration (IC50) value is calculated using non-linear regression analysis through GraphPad Prism software (GraphPad, Inc., San Diego, CA).

[2] = tested on: MET phosphorylation and downstream signaling in MKN-45 cells; test: Immunoblotting for cellular kinase phosphorylation, MKN-45; type: cell-based; conditions: 16 hour incubation
Method: as §1

HCC827 cells = test: Apoptosis of HCC827 cells; type: cell-based, human; conditions: 48 hour incubation, combination with AZD9291
MC38 syngeneic tumors [3] = test: Subcutaneous MC38 syngeneic mouse tumor model, tumor volume and body weight; type: in vivo
Method: (§2) C57BL/6J female mice (6 weeks) were purchased from the Jackson Laboratory, and maintained in accordance with the guidelines for the care and use of laboratory animals. Half million MC38 cancer cells in 100 μL serum-free medium were implanted subcutaneously in the right flank region of the mouse. Tumor size and body weight were measured on designated days. Tumor size was measured with an electronic caliper and tumor volume was calculated as the product of length*width^2*0.5. […] Vehicle control, Compound 5, PD-1 antibody or Compound 5 plus PD-1 antibody were administered orally (BID) at determined doses.
Anti-tumor effects of Compound 5 on MC38 syngeneic tumors was analyzed by tumor volume. The average tumor volume of vehicle control group (G1) on day 7 was 696.3±299.7, while Compound 5 treated group (G2) was 473.5±170.4 mm^3. On day 11, the average tumor volume of G1 and G2 were 1142.6±290.0 and 610.4±151.8mm^3, respectively.

MC38 syngeneic tumors [4] = test: Combination efficacy study with PD-1 antibody in MC38 syngeneic model; type: in vivo, mouse
Method: as §2
Anti-tumor effects of Compound 5 combined with PD-1 antibody on MC38 syngeneic tumors was analyzed by tumor volume. The average tumor volume of vehicle control group (G1) on day 20 was 1938.58±729.41, Compound 5 treated group (G2) was 1220.03±521.39 mm3, PD-1 antibody treatment group was 821.24±767.16, and Compound 5 plus PD-1 antibody treatment was 515.63±350.47.

LU2503 tumors = test: LU2503 patient derived xenograft (PDX) NSCLC model
Method: Primary human tumor xenograft model LU2503 tumors were grown in stock mice. Tumor fragments (2-3 mm in diameter) were harvested from stock mice and inoculated into the right front back of each mouse for tumor development. 16 mice were enrolled in the study. All animals were randomly allocated to the 2 different study groups. Tumor size and body weight were measured on designated days. Tumor size was measured using a caliper and tumor volume was calculated as the product of length*width^2*0.5.

[5] = tested on: tumor associated immune cells in MC38 tumors; test: MC38 syngeneic model PD biomarker study (FACS of tumor associated immune cells)
Method: MC38 tumors were collected on day 7 and day 11. The collected tumors were dissociated using MiltenyiGentleMax. FACS analysis of tumors were performed for the tumor associated immune cells including tumor associated macrophages (TAM) and TAM subtypes (M1 and M2), myeloid derived suppression cells (MDSC), cytotoxic T lymphocytes (CTL, i.e. CD8+ T cells), CD4+ T cells, and regulatory T cells (Treg).
FACS analysis of tumors were performed on day 7 and day 11 for the tumor associated immune cells including tumor associated macrophages (TAM) and TAM subtypes (MI and M2), myeloid derived suppression cells (MDSC), cytotoxic T lymphocytes (CTL, i.e. CD8+ T cells), CD4+ T cells, and regulatory T cells (Treg).

T1 sequence (P12931 whole entry): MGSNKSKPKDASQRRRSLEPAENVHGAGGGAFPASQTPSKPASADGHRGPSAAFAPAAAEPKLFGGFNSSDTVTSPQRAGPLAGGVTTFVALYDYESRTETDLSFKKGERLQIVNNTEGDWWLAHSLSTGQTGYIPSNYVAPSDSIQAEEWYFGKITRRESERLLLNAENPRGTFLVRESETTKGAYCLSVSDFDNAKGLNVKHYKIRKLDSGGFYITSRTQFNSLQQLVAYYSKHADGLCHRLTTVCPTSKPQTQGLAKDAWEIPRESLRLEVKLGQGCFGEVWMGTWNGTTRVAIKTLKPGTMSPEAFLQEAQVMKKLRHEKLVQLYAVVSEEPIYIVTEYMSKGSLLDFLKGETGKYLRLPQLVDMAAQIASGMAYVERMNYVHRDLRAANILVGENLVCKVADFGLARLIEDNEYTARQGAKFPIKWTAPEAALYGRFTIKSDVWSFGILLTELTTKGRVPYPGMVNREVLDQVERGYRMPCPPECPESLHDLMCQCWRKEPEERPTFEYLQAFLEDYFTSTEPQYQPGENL

Structure (SMILES): CCN1Cc2c(ccc(F)c2C#N)O[C@@H](C)CNC(=O)c2c(N)nn3ccc1nc23 [Compound 5, (7S)-3-amino-14-ethyl-11-fluoro-7-methyl-4-oxo-4,5,6,7,13,14-hexahydro-1,15-ethenopyrazolo[4,3-f][1,4,8,10]benzoxatriazacyclotridecine-12-carbonitrile]
- IC50 (SRC): 0.12 nM
- MET phosphorylation (gel) [1]: inhibited
- phosphorylation of MET and downstream effectors (gel) [2]: inhibited
- apoptosis of HCC827 cells (HCC827 cells): synergized with AZD9291
- body weight and overt abnormality (MC38 syngeneic tumors [3]; 15 mg/kg BID for 7 or 11 days): No body weight loss and overt abnormality
- average tumor volume (MC38 syngeneic tumors [3]; day 7, 15 mg/kg BID): 473.5±170.4 mm^3
- average tumor volume (MC38 syngeneic tumors [3]; day 11, 15 mg/kg BID): 610.4±151.8 mm^3
- average tumor volume (MC38 syngeneic tumors [4]; day 20): 1220.03±521.39 mm3
- body weight and overt abnormality (MC38 syngeneic tumors [4]; mouse, in vivo): No body weight loss and overt abnormality
- tumor regression (LU2503 tumors; 15 mg/kg, BID for 13 days): 85%
- body weight (LU2503 tumors; 21 days of BID treatment at 15 mg/kg): No body weight loss
- TAM cells vs control ([5]; day 7): trend for a reduction
- populations of TAM, M1, M2, MDSC, CTL, CD4+ T cells, Treg in CD45+ tumor leukocytes vs control ([5]; day 7): no statistically significant changes
- CD4+ T cells or Treg cells vs control ([5]; day 11): no statistically significant change
- CTL cells in the total tumor leukocyte population vs control ([5]; day 11): trend of increase
- CTL in the CD3+ lymphocyte population vs control ([5]; day 11): statistically significant increase
- M1 TAM in the total tumor leukocyte population vs control ([5]; day 11): increase
- M2 TAM in the total tumor leukocyte population vs control ([5]; day 11): decrease
- MDSC populations vs control ([5]; day 11): concurrent increase
- TAM in the total tumor leukocyte population vs control ([5]; day 11): statistically significant decrease

From patent US12606571B2, “Macrocyclic compounds and uses thereof” (TURNING POINT THERAPEUTICS, INC., priority 2017, dated 2026)
